Columns and labels:
[1] = target: NAMPT (human, recombinant, C-terminally His-tagged) (Homo sapiens, UniProt P43490); test: Time-Resolved Fluorescence Resonance Energy Transfer (TR-FRET) Binding Assay of NAMPT; conditions: 6.8 nM NAMPT, 200 nM probe, equilibrated 3 hours, absence of substrates
Outline: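 Recombinant C-terminally His-tagged human NAMPT (6.8 nM) incubated 3 h at room temperature with 200 nM Oregon Green 488–labelled nicotinamide-competitive probe and 1 nM Tb-anti-His antibody in HEPES pH 7.5, 2% DMSO. TR-FRET ratio Em520/Em495 normalized to controls; IC50 from four-parameter logistic fit.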

[2] = target: NAMPT (Homo sapiens, UniProt P43490); test: Time-Resolved Fluorescence Resonance Energy Transfer (TR-FRET) Binding Assay of NAMPT with PRPP; conditions: 2 nM NAMPT, 2 nM probe, 200 uM PRPP and 2.5 mM ATP, equilibrated 16 hours
Outline: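 Final mix: 2 nM NAMPT, 2 nM probe, 1 nM Tb-anti-His antibody, 200 uM PRPP, 2.5 mM ATP, 2% DMSO in 1× assay buffer. Equilibrated 16 hours before TR-FRET read, allowing possible enzymatic modification of compounds.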

Sequence of NAMPT (P43490 whole entry): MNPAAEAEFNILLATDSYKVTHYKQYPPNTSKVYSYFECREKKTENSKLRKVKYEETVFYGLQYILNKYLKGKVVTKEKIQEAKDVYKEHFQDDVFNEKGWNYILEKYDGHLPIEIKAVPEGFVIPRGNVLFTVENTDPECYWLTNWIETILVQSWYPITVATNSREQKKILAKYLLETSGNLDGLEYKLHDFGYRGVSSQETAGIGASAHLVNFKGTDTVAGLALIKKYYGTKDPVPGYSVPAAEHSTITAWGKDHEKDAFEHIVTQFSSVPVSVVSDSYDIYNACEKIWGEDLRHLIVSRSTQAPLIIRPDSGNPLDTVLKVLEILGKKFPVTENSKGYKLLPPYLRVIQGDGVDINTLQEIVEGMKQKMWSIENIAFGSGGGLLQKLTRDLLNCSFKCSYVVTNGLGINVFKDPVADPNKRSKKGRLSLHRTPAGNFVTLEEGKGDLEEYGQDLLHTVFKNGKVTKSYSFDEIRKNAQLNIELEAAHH
Sequence of NAMPT (human, recombinant, C-terminally His-tagged) (P43490 whole entry): as above

SMILES | IC50 [1] [nM] | IC50 [2] [nM]
O=C(Nc1ccc(C2CCN(C(=O)c3ccccc3)CC2)cc1)[C@H]1CCN(c2cccnn2)C1 [Example 311, (3S)—N-[4-(1-benzoylpiperidin-4-yl)phenyl]-1-(pyridazin-3-yl)pyrrolidine-3-carboxamide] | 30.2 | 3.96
Cc1ncccc1N1CC(C(=O)Nc2ccc(C3CCN(C(=O)C4CCCCC4)CC3)cc2)C1 [Example 196, N-{4-[1-(cyclohexylcarbonyl)piperidin-4-yl]phenyl}-1-(2-methylpyridin-3-yl)azetidine-3-carboxamide] | 83.8 | 98.5
O=C(Nc1ccc(OC2CCN(C(=O)C3CCCCC3)CC2)cc1)C1CN(c2cccnc2)C1 [Example 49, N-(4-{[1-(cyclohexylcarbonyl)piperidin-4-yl]oxy}phenyl)-1-(pyridin-3-yl)azetidine-3-carboxamide] | 66.1 | 1.02
COc1ccccc1C(=O)N1CCC(c2ccc(NC(=O)C3CN(c4cccnn4)C3)cc2)CC1 [Example 345, N-{4-[1-(2-methoxybenzoyl)piperidin-4-yl]phenyl}-1-(pyridazin-3-yl)azetidine-3-carboxamide] | 9.54 | 0.392
O=C(Nc1ccc(C2CCN(C(=O)CC3CCCCC3)CC2)cc1)C1CN(c2cccnc2)C1 [Example 119, N-{4-[1-(cyclohexylacetyl)piperidin-4-yl]phenyl}-1-(pyridin-3-yl)azetidine-3-carboxamide] | 6.12 | 0.169
O=C(Nc1ccc(OC2CCN(C(=O)c3ccc(OC(F)(F)F)cc3)CC2)cc1)C1CN(c2cccnn2)C1 [Example 235, 1-(pyridazin-3-yl)-N-[4-({1-[4-(trifluoromethoxy)benzoyl]piperidin-4-yl}oxy)phenyl]azetidine-3-carboxamide] | 283 | 1.41
CC(C)CC(=O)N1CCC(Oc2ccc(NC(=O)C3CN(c4ccnnc4)C3)cc2)CC1 [Example 266, N-(4-{[1-(3-methylbutanoyl)piperidin-4-yl]oxy}phenyl)-1-(pyridazin-4-yl)azetidine-3-carboxamide] | 120 | 53.2
O=C(Nc1ccc(C2CCN(C(=O)c3cccc(C(F)(F)F)c3)CC2)cc1)C1CN(c2cccnn2)C1 [Example 354, 1-(pyridazin-3-yl)-N-(4-{1-[3-(trifluoromethyl)benzoyl]piperidin-4-yl}phenyl)azetidine-3-carboxamide] | 82.8 | 0.837
O=C(Nc1ccc(OC2CCN(C(=O)CC(F)(F)F)CC2)cc1)C1CN(c2cccnn2)C1 [Example 252, 1-(pyridazin-3-yl)-N-(4-{[1-(3,3,3-trifluoropropanoyl)piperidin-4-yl]oxy}phenyl)azetidine-3-carboxamide] | 238 | 1.1
O=C(Nc1ccc(C2CCN(C(=O)Cc3ccc(F)cc3)CC2)cc1)C1CN(c2cccnn2)C1 [Example 368, N-(4-{1-[(4-fluorophenyl)acetyl]piperidin-4-yl}phenyl)-1-(pyridazin-3-yl)azetidine-3-carboxamide] | 64 | 0.635
CCCC(C)CN1CCC(Oc2ccc(NC(=O)C3CN(c4cccnc4)C3)cc2)CC1 (centres unmarked) [Example 75, N-(4-{[1-(2-methylpentyl)piperidin-4-yl]oxy}phenyl)-1-(pyridin-3-yl)azetidine-3-carboxamide] | 1340 | 0.719
O=C(Nc1ccc(C2CCN(C(=O)CC(F)(F)F)CC2)cc1)C1CN(c2cccnn2)C1 [Example 332, 1-(pyridazin-3-yl)-N-{4-[1-(3,3,3-trifluoropropanoyl)piperidin-4-yl]phenyl}azetidine-3-carboxamide] | 21.9 | 0.699
Cc1ncccc1N1CC(C(=O)Nc2ccc(C3CCN(C(=O)c4cccc(F)c4)CC3)cc2)C1 [Example 152, N-{4-[1-(3-fluorobenzoyl)piperidin-4-yl]phenyl}-1-(2-methylpyridin-3-yl)azetidine-3-carboxamide] | 87.6 | 101
Cc1ncccc1N1CC(C(=O)Nc2ccc(C3CCN(C(=O)C4(C)CC4)CC3)cc2)C1 [Example 170, N-(4-{1-[(1-methylcyclopropyl)carbonyl]piperidin-4-yl}phenyl)-1-(2-methylpyridin-3-yl)azetidine-3-carboxamide] | 91.5 | 89.8
CSCCC(=O)N1CCC(c2ccc(NC(=O)C3CN(c4cccnn4)C3)cc2)CC1 [Example 337, N-(4-{1-[3-(methylsulfanyl)propanoyl]piperidin-4-yl}phenyl)-1-(pyridazin-3-yl)azetidine-3-carboxamide] | 50 | 0.522
O=C(Nc1ccc(OC2CCN(C(=O)c3ccco3)CC2)cc1)C1CN(c2cccnc2)C1 [Example 63, N-(4-{[1-(furan-2-ylcarbonyl)piperidin-4-yl]oxy}phenyl)-1-(pyridin-3-yl)azetidine-3-carboxamide] | 52.7 | 0.514

SMILES | IC50 [1] [nM] | IC50 [2] [nM]
CC[C@H](C)C(=O)N1CC(Oc2ccc(NC(=O)C3CN(c4ccnnc4)C3)cc2)C1 [Example 265, N-[4-({1-[(2S)-2-methylbutanoyl]azetidin-3-yl}oxy)phenyl]-1-(pyridazin-4-yl)azetidine-3-carboxamide] | 29.5 | 21.8
CCCN1CCC(Oc2ccc(NC(=O)C3CN(c4cccnc4)C3)cc2)CC1 [Example 81, N-{4-[(1-propylpiperidin-4-yl)oxy]phenyl}-1-(pyridin-3-yl)azetidine-3-carboxamide] | 3720 | 1.13
O=C(Nc1ccc(OC2CCN(C(=O)c3ccc(Cl)cc3)CC2)cc1)C1CN(c2ccnnc2)C1 [Example 297, N-(4-{[1-(4-chlorobenzoyl)piperidin-4-yl]oxy}phenyl)-1-(pyridazin-4-yl)azetidine-3-carboxamide] | 104 | 47
CC(C)C(C)C(=O)N1CCC(c2ccc(NC(=O)C3CN(c4cccnn4)C3)cc2)CC1 (centres unmarked) [Example 326, N-{4-[1-(2,3-dimethylbutanoyl)piperidin-4-yl]phenyl}-1-(pyridazin-3-yl)azetidine-3-carboxamide] | 18.3 | 0.626
O=C(Nc1ccc(C2CCN(C(=O)c3ccc(F)cc3)CC2)cc1)C1CN(c2cccnn2)C1 [Example 349, N-{4-[1-(4-fluorobenzoyl)piperidin-4-yl]phenyl}-1-(pyridazin-3-yl)azetidine-3-carboxamide] | 59.5 | 0.738
O=C(Nc1ccc(C2CCN(C(=O)c3cccs3)CC2)cc1)C1CN(c2cccnn2)C1 [Example 376, 1-(pyridazin-3-yl)-N-{4-[1-(thiophen-2-ylcarbonyl)piperidin-4-yl]phenyl}azetidine-3-carboxamide] | 3.22 | 0.468
Cc1ncccc1N1CC(C(=O)Nc2ccc(C3CCN(C(=O)c4ccoc4)CC3)cc2)C1 [Example 165, N-{4-[1-(furan-3-ylcarbonyl)piperidin-4-yl]phenyl}-1-(2-methylpyridin-3-yl)azetidine-3-carboxamide] | 35.2 | 68.3
CC(C)C(=O)N1CCC(Oc2ccc(NC(=O)C3CN(c4cccnn4)C3)cc2)CC1 [Example 253, N-(4-{[1-(2-methylpropanoyl)piperidin-4-yl]oxy}phenyl)-1-(pyridazin-3-yl)azetidine-3-carboxamide] | 134 | 0.639
O=C(Nc1ccc(OC2CCN(C(=O)c3ccsc3)CC2)cc1)C1CN(c2cccnc2)C1 [Example 58, 1-(pyridin-3-yl)-N-(4-{[1-(thiophen-3-ylcarbonyl)piperidin-4-yl]oxy}phenyl)azetidine-3-carboxamide] | 59.5 | 0.683
CC[C@H](C)C(=O)N1CCC(Oc2ccc(C(=O)NC3CN(c4cccnc4)C3)cc2)CC1 [Example 23, 4-({1-[(2S)-2-methylbutanoyl]piperidin-4-yl}oxy)-N-[1-(pyridin-3-yl)azetidin-3-yl]benzamide] | 1950 | 0.61
O=C(Nc1ccc(OC2CCN(C(=O)Cc3ccccc3F)CC2)cc1)C1CN(c2ccnnc2)C1 [Example 308, N-[4-({1-[(2-fluorophenyl)acetyl]piperidin-4-yl}oxy)phenyl]-1-(pyridazin-4-yl)azetidine-3-carboxamide] | 36.9 | 18.4
O=C(Nc1ccc(C2CCN(C(=O)c3cccc(OC(F)(F)F)c3)CC2)cc1)C1CN(c2cccnn2)C1 [Example 356, 1-(pyridazin-3-yl)-N-(4-{1-[3-(trifluoromethoxy)benzoyl]piperidin-4-yl}phenyl)azetidine-3-carboxamide] | 67.7 | 0.878
CC(C)(C(=O)N1CCC(Oc2ccc(NC(=O)C3CN(c4ccnnc4)C3)cc2)CC1)c1ccccc1 [Example 281, N-(4-{[1-(2-methyl-2-phenylpropanoyl)piperidin-4-yl]oxy}phenyl)-1-(pyridazin-4-yl)azetidine-3-carboxamide] | 20.5 | 14.9
CC(C)C(C)C(=O)N1CCC(Oc2ccc(NC(=O)C3CN(c4cccnc4)C3)cc2)CC1 (centres unmarked) [Example 70, N-(4-{[1-(2,3-dimethylbutanoyl)piperidin-4-yl]oxy}phenyl)-1-(pyridin-3-yl)azetidine-3-carboxamide] | 35.7 | 0.742
CC(C)(C(=O)N1CCC(Oc2ccc(NC(=O)C3CN(c4cccnn4)C3)cc2)CC1)c1ccccc1 [Example 217, N-(4-{[1-(2-methyl-2-phenylpropanoyl)piperidin-4-yl]oxy}phenyl)-1-(pyridazin-3-yl)azetidine-3-carboxamide] | 43.9 | 1.51
